Laboratory results: article PMC9977398, “Next-generation membrane-active glycopeptide antibiotics that also inhibit bacterial cell division” (Chemical Science, 2023)

Columns and labels:
persister cells of MRSA = experiment: Bactericidal activity against persister cells; type: cell-based, S. aureus
Experimental: Persister cells are a subpopulation of bacterial cultures that are refractory to antibiotic treatment.[28] […] This activity was more rapid than that observed against stationary phase cells. […]
from 10 μg/mL. The bacteria with compounds and untreated control were incubated for 18 h at 37 ̊C under shaking and OD600 was measured.
Microscopy of ΔamiAC MG1655 E. coli
ΔamiAC MG1655 was cultured overnight in LB media at 37 ̊C. Cells were then inoculated in LB media at 1:100 dilution ratio and made to grow till O.D600 0.1. The cells were then treated with 4 μg/mL concentration of vancomycin and VanQAmC10 or left untreated for 2 h. 6 μl of sample was immobilized on 1% agarose pad and microscopy was performed as described above. The experiments were performed three times independently and the images are representative of results from three independent experiments. […]
MRSA ATCC 33591 was grown to mid-log phase at 37 °C. […] The viable bacteria were then counted after 48 h incubation at 37 °C. […]
Antagonization of antibacterial activity of AAV-qC10 was determined by addition of 500 μM N,N՛-diacetyl–L-Lys–D-Ala–D-Ala or 100 μg/mL of lipoteichoic acid to serial dilutions of the test compound. The MIC was then determined against MRSA by measuring the OD600 18-24 […]
Vancomycin was chosen as control antibiotic for MRSA. The initial MIC values of VanQAmC10, vancomycin were determined against the respective bacteria. […]

B. subtilis = experiment: Membrane permeabilization assay, propidium iodide uptake; type: cell-based; settings: exponentially growing B. subtilis, 10 μM, PI uptake
Experimental: The kinetics of permeabilization of membranes of MRSA and B. subtilis by the compounds was measured by the uptake of propidium iodide (PI). […] When the membrane integrity is compromised, it enters the cell and fluoresces upon binding to the DNA. Both VanQbiph (4) and VanQAmC10 (8) permeabilized the membrane in a concentration-dependent manner (Fig. S2 ^†). […] They caused gradual permeabilization against the stationary phase cells of MRSA as well (Fig. 2F). The extent of permeabilization was higher for VanQAmC10 (8) than VanQbiph (4) against both the log-phase and stationary-phase bacteria similar to that observed during depolarisation.
50 μL of serially diluted compound was added into 96 well microtiter plates. Freshly drawn, heparanized human blood was centrifuged down to obtain the erythrocytes and re-suspended to 5 vol % in PBS (pH 7.4). […] 100 μL of the supernatant from each well were transferred into fresh microtiter plates, and A540 was measured.
% haemolysis = (A - A0)/(Atotal -A0) × 100, where A is the absorbance of the test well, A 0 the absorbance of the negative controls (without compound), and A total the absorbance of 100 % hemolysis wells (with Triton X -100), all at 540 nm. […]
2 h post incubation with dye, the absorbance was measured at 570 nm using 600 nm as […]
The bactericidal activity of the compounds was evaluated with the time kill kinetics assay. […]

[1] = system: VRSA 4 (vancomycin-resistant S. aureus); set-up: method as in PMID 32195571; settings: previously reported; cited from earlier work
[2] = system: VRE 51559 (vancomycin-resistant E. faecium, VanA phenotype, ATCC 51559); set-up: method as in PMID 32195571; settings: previously reported; cited from earlier work
human erythrocytes = system: human erythrocytes; set-up: method as in PMID 32195571; settings: previously reported; cited from earlier work
RAW 264.7 cells = system: RAW 264.7 cells; set-up: method as in PMID 32195571; settings: cited from earlier work

Compound: CCCCCCCCCCNC(=O)C[N+](C)(C)CCCNC(=O)C1NC(=O)C2NC(=O)C(NC(=O)C3NC(=O)C(CC(N)=O)NC(=O)C(NC(=O)C(CC(C)C)NC)C(O)c4ccc(c(Cl)c4)Oc4cc3cc(c4OC3OC(CO)C(O)C(O)C3OC3CC(C)(N)C(O)C(C)O3)Oc3ccc(cc3Cl)C2O)c2ccc(O)c(c2)-c2c(O)cc(O)cc21 (stereo not drawn) [VanQAmC10 (8)]
- activity against persister cells (persister cells of MRSA): concentration-dependent bactericidal activity
- time to membrane permeabilization (B. subtilis): ≤ 4 min
- Minimum inhibitory concentration, VRSA 4 [1]: 1.6 to 3.1 µM
- Minimum inhibitory concentration, VRE 51559 [2]: 4 µM
- HC50 (human erythrocytes): >500 µM
- concentration up to which non-toxic (RAW 264.7 cells): 40 µM
